Reference: patent US8865913B2, “Crystalline forms and processes for their preparation” (BIAL-Portela & C.A., S.A, priority 2010, dated 2014)

Assays:
Format in all cases: physicochemical
[1] = Moisture sorption analysis (VTI SGA-100, 5 to 95% RH); conditions: for hysteresis upon desorption: decreasing relative humidity; for hysteresis upon desorption / weight loss between ~95% and ~5% RH: desorption; for weight loss between ~95% and ~5% RH: ~95% to ~5% RH; for weight gain between ~5% and ~75% RH / total water uptake between ~5% and ~95% RH / weight gain between ~75% and ~95% RH: sorption; for weight gain between ~5% and ~75% RH: ~5% to ~75% RH; for total water uptake between ~5% and ~95% RH: ~5% to ~95% RH; for weight gain between ~75% and ~95% RH: ~75% to ~95% RH
Protocol: 9. Moisture Sorption Analysis
Moisture sorption/desorption data were collected on a VTI SGA-100 Vapor Sorption Analyzer. NaCl and PVP were used as calibration standards. Samples were not dried prior to analysis. Sorption and desorption data were collected over a range from 5 to 95% RH at 10% RH increments under a nitrogen purge. The equilibrium criterion used for analysis was less than 0.0100% weight change in 5 minutes with a maximum equilibration time of 3 hours. Data were not corrected for the initial moisture content of the samples.

[2] = Aqueous vapor stress experiments
Protocol: d. Aqueous Vapor Stress Experiments
Samples of starting material were exposed to ˜85% and ˜97% relative humidity at ambient temperature and ˜75% relative humidity at ˜40° C. for a specified duration.

[3] = Organic vapor stress experiments
Protocol: e. Organic Vapor Stress Experiments
Samples of starting material were exposed to vapors of a specified organic solvent for a given amount of time by placing open vials with solids tested into 20 mL vials containing solvent. Organic vapor stress experiments were conducted at ambient temperature.

[4] = Mechanical stress experiments (ball mill, dry/wet grinding)
From the text: h. Mechanical Stress Experiments
Samples of starting material were placed in a Retsch ball mill and milled for two five-minute cycles without solvent (dry grinding) or with a small amount of solvent added (wet grinding) scraping the solids between the cycles. Ten-minute cycles were used for milling of a selected sample without addition of solvent.

[5] = Slurry experiments (incl. water activity slurries)
Protocol: Solutions were prepared by addition of a solvent or solvent mixture to the starting material with excess solids present. The mixtures were then agitated in sealed vials at either ambient or a set temperature. For agitation at subambient temperature, chilled solvent was added and the sample was immediately transferred to a freezer. After a given amount of time, the solids were isolated.

[6] = Heat stress experiments of amorphous material; conditions: sample no. 3
From the text: i. Heat Stress Experiments
Samples of amorphous material were placed in heating ovens at temperature set below or above the glass transition, or were agitated on a shaker block at elevated temperature for a given duration.

[7] = Slow cooling of the melt experiment; conditions: 77° C., SC to RT; sample no. 3
From the text: j. Slow Cooling of the Melt Experiment
Samples of amorphous material were heated on a hot plate at temperature above the glass transition. The sample was then allowed to slow cool to ambient by turning the heating device off.

## Fc1cc(F)c2c(c1)C[C@@H](n1c(CCNCc3ccccc3)c[nH]c1=S)CO2 [Form A, 1-[(3R)-6,8-difluoro-3,4-dihydro-2H-1-benzopyran-3-yl]-1,3-dihydro-5-[2-[(phenylmethyl)amino]ethyl]-2H-imidazole-2-thione]
[1]; 5% to 95% RH
  hygroscopicity: low hygroscopicity (a material that exhibits <0.5 wt(weight) % water uptake over a specified relative humidity range)
[1]
  hysteresis upon desorption: hysteresis between around 85% to around 45% RH
  weight loss between ~95% and ~5% RH: around 0.20 wt %
  weight gain between ~5% and ~75% RH: around 0.02 wt %
  weight gain between ~75% and ~95% RH: around 0.19 wt %
[1]; listed as Lot 5
  hysteresis upon desorption: Small hysteresis
  weight loss between ~95% and ~5% RH: ~0.20 wt %
  weight gain between ~5% and ~75% RH: ~0.02 wt % gain between ~5% and ~75% RH
  weight gain between ~75% and ~95% RH: ~0.19 wt % gain between ~75% and ~95% RH
[1]; listed as lot 5
  hysteresis upon desorption: small hysteresis
  weight loss between ~95% and ~5% RH: ~0.20 wt %
  weight gain between ~5% and ~75% RH: ~0.02 wt %
  total water uptake between ~5% and ~95% RH: ~0.21 wt %
  weight gain between ~75% and ~95% RH: ~0.19 wt %
[1]; moisture sorption
  weight change upon equilibration at ~5% RH: negligible loss
[1]; moisture sorption, listed as Lot 5
  weight change upon equilibration at ~5% RH: Negligible loss upon equilibration at ~5% RH
[1]; moisture sorption, listed as lot 5
  weight change upon equilibration at ~5% RH: negligible weight loss
[2]; 75% RH, 40° C., 2 days
  XRPD result after aqueous vapor stress: Form A
[2]; 85% RH, 2 days
  XRPD result after aqueous vapor stress: Form A
[2]; summary statement
  stability of the crystal form upon aqueous vapor stress: remains stable as a crystal form
[3]; CHCl3, vapor stress, 11 days
  XRPD result after organic vapor stress: Form A
[3]; EtOAc, vapor stress, 11 days
  XRPD result after organic vapor stress: Form A
[4]; Acetone, wet grinding, 2 × 5 min. cycles
  XRPD result after mechanical stress: Form A
[4]; DMF, wet grinding, 2 × 5 min. cycles
  XRPD result after mechanical stress: Form A
[4]; Dry grinding, 2 × 5 min. cycles
  XRPD result after mechanical stress: Form A (disordered)
[4]; Dry grinding, 2 × 10 min. cycles
  XRPD result after mechanical stress: Form A (disordered)
[4]; MEK, wet grinding, 2 × 5 min. cycles
  XRPD result after mechanical stress: Form A
[4]; TFE, wet grinding, 2 × 5 min. cycles
  XRPD result after mechanical stress: Form A
[4]; THF, wet grinding, 2 × 5 min. cycles
  XRPD result after mechanical stress: Form A
[4]; summary statement
  stability of the crystal form upon mechanical stress: remains stable as a crystal form

## Fc1cc(F)c2c(c1)C[C@@H](n1c(CCNCc3ccccc3)c[nH]c1=S)CO2 [compound 2, 1-[(3R)-6,8-difluoro-3,4-dihydro-2H-1-benzopyran-3-yl]-1,3-dihydro-5-[2-[(phenylmethyl)amino]ethyl]-2H-imidazole-2-thione]
[5]; amorphous starting material sample no. 2, Water, 50° C., 3 days, aw 1, sample no. 119
  XRPD result of water activity slurry: Material C (close to Form A + peaks)
[5]; amorphous starting material sample no. 3, Acetone/water (25/75), aw 0.95, ambient, 6 days, sample no. 108
  XRPD result of water activity slurry: Form A^c
[5]; amorphous starting material sample no. 3, Acetone/water (33/67), aw 0.93, ambient, 6 days, washed w/ acetone/water (33/67), sample no. 107
  XRPD result of water activity slurry: Form A^c
[5]; amorphous starting material sample no. 3, Acetone/water (60/40), aw 0.89, ambient, 6 days, sample no. 106
  XRPD result of water activity slurry: Form A
[5]; amorphous starting material sample no. 3, Acetone/water (82/18), aw 0.80, ambient, 6 days, sample no. 105
  XRPD result of water activity slurry: Form A
[5]; amorphous starting material sample no. 3, Acetone/water (88/12), aw 0.73, ambient, 6 days, sample no. 104
  XRPD result of water activity slurry: Form A
[5]; amorphous starting material sample no. 3, DMF/water (9/91), aw 0.98, RT, 5 days, washed w/ water, sample no. 115
  XRPD result of water activity slurry: Form A^c
[5]; amorphous starting material sample no. 3, DMSO/water (10/90), aw 0.97, RT, 5 days, washed w/ water, sample no. 116
  XRPD result of water activity slurry: Form A^c
[5]; amorphous starting material sample no. 3, EtOH/water (67/33), aw 0.82, 40° C., 2 days, sample no. 111
  XRPD result of water activity slurry: Form A^c
[5]; amorphous starting material sample no. 3, Ethanol/water (20/80), aw 0.95, ambient, 6 days, sample no. 113
  XRPD result of water activity slurry: Form A^c
[5]; amorphous starting material sample no. 3, Ethanol/water (47/53), aw 0.90, ambient, 6 days, sample no. 112
  XRPD result of water activity slurry: Form A^c
[5]; amorphous starting material sample no. 3, Ethanol/water (70/30), aw 0.80, ambient, 6 days, sample no. 110
  XRPD result of water activity slurry: Form A^c
[5]; amorphous starting material sample no. 3, Ethanol/water (80/20), aw 0.70, ambient, 6 days, sample no. 109
  XRPD result of water activity slurry: Form A^c
[5]; amorphous starting material sample no. 3, IPA/water (50/50), aw 0.96, 40° C., 2 days, sample no. 114
  XRPD result of water activity slurry: Form A^c
[5]; amorphous starting material sample no. 3, MeOH/water (50/50), aw 0.75, ambient, 6 days, washed w/ MeOH/water (50/50), sample no. 117
  XRPD result of water activity slurry: Form A^c
[5]; amorphous starting material sample no. 3, THF/water (50/50), aw 1.03, ambient, 6 days, washed w/ THF/water (50/50), VO, RT, 1 h, sample no. 118
  XRPD result of water activity slurry: Form A^c
[5]; amorphous starting material sample no. 3, Water, RT, 4 days, surfactant as wetting agent, aw 1, sample no. 121
  XRPD result of water activity slurry: Form A

## Fc1cc(F)c2c(c1)C[C@@H](n1c(CCNCc3ccccc3)c[nH]c1=S)CO2 [Amorphous, 1-[(3R)-6,8-difluoro-3,4-dihydro-2H-1-benzopyran-3-yl]-1,3-dihydro-5-[2-[(phenylmethyl)amino]ethyl]-2H-Imidazole-2-thione]
[1]; desorption between ~85% and ~15% RH
  moisture retained upon desorption: 3.6-5.8 wt %
[1]; listed as Sample No. 2
  hysteresis upon desorption: large hysteresis
  weight loss between ~95% and ~5% RH: ~8.6 wt %
  weight gain between ~5% and ~75% RH: approximately 1.2 wt %
  total water uptake between ~5% and ~95% RH: ~9.9 wt %
  weight gain between ~75% and ~95% RH: ~8.7 wt %
[1]; listed as amorphous compound 2
  hysteresis upon desorption: hysteresis over a range of more than 50% RH
  weight loss between ~95% and ~5% RH: around 8.6 wt %
  weight gain between ~5% and ~75% RH: around 1.2 wt %
  weight gain between ~75% and ~95% RH: around 8.7 wt %
[1]; moisture sorption, amorphous material
  hygroscopicity: significant hygroscopicity (a material that exhibits ≧2.0 wt % water uptake over a specified RH range)
[1]; moisture sorption, listed as Sample No. 2
  weight gain upon equilibration at ~5% RH: ~0.1 wt %
[1]; moisture sorption, listed as amorphous compound 2
  weight gain upon equilibration at ~5% RH: around 0.08 wt %
[2]; 75% RH, 40° C., 1 day, starting material sample no. 3
  XRPD result after aqueous vapor stress: Disordered, Form A
[2]; 85% RH, 3 days, starting material sample no. 14
  XRPD result after aqueous vapor stress: No peaks
[2]; 97% RH, RT, 6 days, starting material sample no. 3
  XRPD result after aqueous vapor stress: Amorphous/Form A mixture
[3]; Acetone, 1 day, starting material sample no. 2
  XRPD result after organic vapor stress: Form A
[3]; CHCl3, 1 day, starting material sample no. 2
  XRPD result after organic vapor stress: Form A
[3]; EtOAc, 1 day, starting material sample no. 2
  XRPD result after organic vapor stress: Form B
[3]; IPE, 2 days, starting material sample no. 3
  XRPD result after organic vapor stress: Form A
[6]; 36° C., 1 day, heating with agitation
  XRPD result after heat stress: Disordered, Form A
[6]; 40° C., 3 hrs
  XRPD result after heat stress: Amorphous/Form A mixture
[6]; 50° C., 3 hrs
  XRPD result after heat stress: Amorphous/Form A mixture
[6]; 60° C., 3 hrs
  XRPD result after heat stress: Disordered, Form A
[6]; 80° C., 3 hrs
  XRPD result after heat stress: Form A^c
[6]; 80° C., 1 day
  XRPD result after heat stress: Form A^c
[7]
  XRPD result after cooling from the melt: Amorphous/Form A mixture
